Data: US11752115B2, “PPAR-alpha agonist treatment of neuropsychiatric disorders” (THE BOARD OF TRUSTEES OF THE UNIVERSITY OF ILLINOIS, priority 2017, dated 2023)
Read-outs that look alike come from different tables or passages of the source.

Assays:
PPD patients = details: intravenous infusions, vs only 9% of placebo-treated; cited from earlier work
SI mice [1] = assay: Elevated plus maze; type: in vivo; details: for prevention of the anxiolytic effect of PEA, vs. PEA 10 mg/kg (FIG. 3D): PEA 10 mg/kg i.p. 1 h before test; for time spent in the open arms (increase vs vehicle-treated SI mice): […] before test
Protocol: Elevated plus maze. Elevated plus maze tests were performed as previously (28). Mice chose between entering open or closed arms that extend from a central platform. An arm entry was scored when four legs were within the arm. Behavior was recorded for 5 min. The time spent and the number of open arm entries were used as index of anxiety-like behavior.

SI mice [2] = assay: Locomotor activity (Example 1); type: in vivo; details: PEA 5, 10, 20 mg/kg i.p., G7 10 mg/kg i.p., G6 3 mg/kg i.p., FIN 50 mg/kg s.c.
Protocol: Locomotor activity. […] Horizontal sensors beam interruptions measured horizontal activity for a total of 10 min.

[3] = system: allopregnanolone (Allo) levels; assay: Brain neurosteroid measurements (GC-MS): Allo; type: in vivo, mice; details: for Allo content in the olfactory bulb vs. PEA-treated mice (block of PEA effect): PEA 10 mg/kg i.p. 1 h before sacrifice
Protocol: (§1) Brain neurosteroid measurements. Extraction, derivatization and quantification of unconjugated neurosteroids was described previously (32). Steroids were extracted and then purified and separated by high-performance liquid chromatography (HPLC) after addition of deuterium-labeled internal standards (25). The aqueous phase (2 ml) containing sulfated neurosteroids underwent a solvolysis. After derivatization, gas chromatography-mass spectrometry analysis in the standard electron impact mode as previously reported (24, 25).

TNF-α = details: depressed patients, responders [82]; cited from earlier work
[4] = system: cannabinoid receptor type 1 (CB1); details: direct activation of CB1 (Vallée et al., 2014); cited from earlier work
[5] = system: early and late adolescent SI mice; assay: Locomotor activity (Example 2); details: all doses tested, i.p., 60 min before test
[6] = system: early and late adolescent SI mice; details: for time after which aggression rebounded (duration of anti-aggressive effect): early and late adolescent SI mice; for EC50 dose, reduction of aggression: i.p., 60 min before test
Protocol: Resident-Intruder Test. To test aggression, a male intruder mouse of the same strain as the resident mouse, was placed in a resident home cage (24 cm×17 cm×12 cm) and resident-intruder interactions were videotaped for 10 min. Aggressive behavior of SI mice was characterized by an initial pattern of exploratory activity around the intruder, followed by rearing and tail rattle, accompanied within a few seconds by wrestling and/or a violent biting attacks. The total number of wrestling and attacks during the 10 min observation period was measured as previously described (Pinna et al., 2003, 2005), 60 min after drug administration. For every drug studied, SI mice were first exposed to three behavioral sessions, and then the average of basal aggression level for every single SI mouse was calculated; 2 days later, aggression levels following treatment were tested. Treated animals showing a reduction of the number of attacks less than 30% vs. the respective basal control values were considered as “low- to non-responders.”
Statistical Analyses. Results are presented as means±SEMs unless otherwise indicated. Student's t-test, one-way ANOVA and two-way ANOVA repeated measures followed by Bonferroni post hoc test were performed to analyze experimental data; significance was set at p<0.05. EC50 values were calculated from dose-response curves analyzed by the “quantal dose-response: probits test” using the computer program of Tallarida and Murray equipped with a statistical package (Tallarida and Murray, 1987). Statistical comparisons among the different EC50s were performed with the “cohort package software.” (available at cohort.com).

SI mice [7] = assay: Contextual fear conditioning, extinction and extinction retention; type: in vivo; details: PPAR-α KO mice; 5 mg/kg i.p.
Protocol: (§2) Contextual fear conditioning. Contextual fear conditioning was performed as previously (25).
(§3) Conditioning trial. Mice were placed in the chamber and exposed for 8 min to a conditioned stimulus and an electric foot-shock (unconditioned stimulus).
(§4) Reactivation. 24 h after conditioning, mice were re-exposed for 5 min to the context for retrieval/reactivation and treated immediately after reactivation.
(§5) Extinction and extinction retention. 24 h after reactivation, mice were re-introduced for 5 min in the chamber once daily for 5 days and freezing time was an index of contextual fear responses. After an interval of 8 days, mice were re-exposed to the chamber to determine extinction retention (25).

[8] = as above; type: in vivo, mice; details: GH mice; 5 mg/kg i.p.
Protocol: as §2, §3, §4, §5

SI mice [9] = assay: Tail suspension test (TST); type: in vivo
Protocol: (§6) Forced swim test and tail suspension test. The forced swim test (FST) or a tail suspension test (TST) was performed as previously (30, 31). FST sessions were video-recorded for 6 min and the last 4 min were analyzed (30). TST duration was 6 min. Immobility time was an index of depressive-like behavior.

SI mice [10] = assay: Forced swim test (FST); type: in vivo
Protocol: as §6

Pregnenolone (PE) = assay: Brain neurosteroid measurements (GC-MS): pregnenolone; type: in vivo; details: SI mice, 1 h
Protocol: as §1

[11] = system: Progesterone (Prog) levels; assay: Brain neurosteroid measurements (GC-MS): progesterone; type: in vivo; details: SI mice, 1 h
Protocol: as §1

[12] = system: Allo sulfate (Allo-S) and other sulfated neurosteroids; assay: Brain sulfated neurosteroid measurements (GC-MS); type: in vivo; details: SI mice; for Allo-S, hippocampus (increase): 60 minutes before sacrifice
Protocol: as §1

[13] = system: 5α-dihydroprogesterone (5α-DHP); assay: Brain neurosteroid measurements (GC-MS): 5α-DHP; type: in vivo; details: SI mice, 1 h
Protocol: as §1

[14] = SI mice, 10 mg/kg i.p., 1 h before test
[15] = PPAR-α KO SI mice, 10 mg/kg i.p., 60 minutes before test

CC(=O)[C@H]1CC[C@H]2[C@@H]3CC[C@H]4C[C@H](O)CC[C@]4(C)[C@H]3CC[C@]12C [allopregnanolone]
patients with rapid and long lasting remission of depressive symptoms (PPD patients): 70%

CCC(=O)NC[C@H](Cc1ccc(OCCc2nc(-c3ccccc3)oc2C)cc1)N/C(C)=C\C(=O)c1ccc(C(F)(F)F)cc1 [G6, GW6471]
prevention of the anxiolytic effect of PEA, vs. PEA 10 mg/kg (FIG. 3D) (SI mice [1]; SI mice, 3 mg/kg i.p. […] before test): −78%
sedation / effect on locomotor activity (SI mice [2]): do not induce sedation
Allo content in the olfactory bulb vs. PEA-treated mice (block of PEA effect) ([3]; SI mice, 3 mg/kg i.p. […] before sacrifice): −48%

CN(C)CCC[C@@]1(c2ccc(F)cc2)OCc2cc(C#N)ccc21 [escitalopram]
lower expression of TNF-α after successful treatment (TNF-α): 30%

CCCCCc1cc(O)c2c(c1)OC(C)(C)[C@@H]1CCC(C)=C[C@@H]21 [THC, 19-tetrahydrocannabinol]
increase of the synthesis of pregnenolone [4]: 30 fold

CNCC[C@H](Oc1ccc(C(F)(F)F)cc1)c1ccccc1 [S-FLX, S-fluoxetine]
exploratory / locomotor activity [5]: did not reduce
reduction in the number of attacks vs. basal value ([6]; late SI mice, 0.75 mg/kg i.p.): −52%
time after which aggression rebounded (duration of anti-aggressive effect) ([6]; single dose 0.375 mg/kg): 1 days
time after which aggression rebounded (duration of anti-aggressive effect) ([6]; single dose 0.75 mg/kg and […]): 3 days

CC(C)(C)NC(=O)[C@H]1CC[C@H]2[C@@H]3CC[C@H]4NC(=O)C=C[C@]4(C)[C@H]3CC[C@]12C [FIN, Finasteride]
prevention of the anxiolytic effect of PEA, vs. PEA 10 mg/kg (FIG. 3D) (SI mice [1]; SI mice, 50 mg/kg s.c. 2.5 h before test): −68%
sedation / effect on locomotor activity (SI mice [2]): do not induce sedation
Allo content in the olfactory bulb vs. PEA-treated mice (block of PEA effect) ([3]; SI mice, 50 mg/kg s.c. 2.5 h before sacrifice): −60%

CC(C)OC(=O)C(C)(C)Oc1ccc(C(=O)c2ccc(Cl)cc2)cc1 [fenofibrate, Fenofibrate]
time spent in the open arms (increase vs vehicle-treated SI mice) (SI mice [1]; SI mice, 7.5 mg/kg s.c.): +88%
time spent in the open arms (increase vs vehicle-treated SI mice) (SI mice [1]; SI mice, 30 mg/kg s.c.): +442%
time spent in the open arms (increase vs vehicle-treated SI mice) (SI mice [1]; SI mice, 120 mg/kg s.c.): +552%
sedation / effect on locomotor activity (SI mice [2]): do not induce sedation

CC(C)(Sc1ccc(CCN(CCCCC2CCCCC2)C(=O)NC2CCCCC2)cc1)C(=O)O [G7, GW7647]
number of entries in the open arms (change vs vehicle-treated SI mice) (SI mice [1]; [14]): +247%
time spent in the open arms (change vs vehicle-treated SI mice) (SI mice [1]; [14]): +506%
sedation / effect on locomotor activity (SI mice [2]): do not induce sedation
Allo levels, olfactory bulb (increase vs vehicle-treated SI mice) ([3]; SI mice, 10 mg/kg i.p., 1 h): +89%

CCCCCCCCCCCCCCCC(=O)NCCO [PEA, N-Palmitoylethanolamine]
contextual fear responses in PPAR-α KO mice (SI mice [7]): failed to affect contextual fear responses
contextual fear responses in GH mice [8]: failed to affect contextual fear responses
time of immobility in the TST in GH-control animals (SI mice [9]; GH-control mice, 10 mg/kg): lack of effect
time of immobility in the TST vs vehicle-treated mice (SI mice [9]; PPAR-α KO mice, 10 mg/kg i.p.): +12%
anxiolytic effect in GH mice (elevated plus maze) (SI mice [1]; GH mice, 5-10 mg/kg i.p.): had no effect
number of entries in the open arms (vs vehicle) (SI mice [1]; [15]): +6%
time spent in the open arms (vs vehicle) (SI mice [1]; [15]): −1%
sedation / effect on locomotor activity (SI mice [2]): do not induce sedation
time of immobility in the FST in GH-control animals (SI mice [10]; GH-control mice, 10 mg/kg): lack of effect
time of immobility in the FST vs vehicle-treated mice (SI mice [10]; PPAR-α KO mice, 10 mg/kg i.p.): +5%
Pregnenolone (PE), olfactory bulb (increase) (Pregnenolone (PE); 5 mg/kg i.p.): +50%
Pregnenolone (PE), olfactory bulb (increase) (Pregnenolone (PE); 10 mg/kg i.p.): +69%
Progesterone (Prog) levels, striatum (increase) ([11]; 10 mg/kg i.p.): +356%
Progesterone (Prog) levels, amygdala (increase) ([11]; 20 mg/kg i.p.): +223%
Progesterone (Prog) levels, hippocampus (increase) ([11]; 20 mg/kg i.p.): +3128%
Progesterone (Prog) levels, striatum (increase) ([11]; 20 mg/kg i.p.): +594%
Allo-S, hippocampus (increase) ([12]; 10 mg/kg i.p.): +100%
Allo-S, hippocampus (increase) ([12]; 20 mg/kg i.p.): +104%
other sulfated neurosteroid levels (PE sulfate, PA sulfate, DHEA sulfate) ([12]; olfactory bulb and hippocampus, 5, 10 and 20 mg/kg i.p.): did not affect
Allo concentrations, olfactory bulb of GH mice ([3]; GH mice, 20 mg/kg i.p., 60 minutes before sacrifice): does not modify
Allo levels, olfactory bulb of PPAR-α KO mice ([3]; SI PPAR-α KO mice, 10 mg/kg i.p., 1 h before sacrifice): failed to affect
Allo levels in the serum (peripheral levels) ([3]; SI mice, 10 mg/kg i.p., 1 h before sacrifice): failed to change
Allo levels, striatum ([3]; SI mice, 5, 10 and 20 mg/kg i.p., 1 h): failed to change
reduction of the number of attacks vs. basal value ([6]; early SI mice, 10 mg/kg i.p.): −57%
reduction of the number of attacks vs. basal value ([6]; early SI mice, 15 mg/kg i.p.): −75%
reduction of the number of attacks vs. basal value ([6]; early SI mice, 20 mg/kg i.p.): −86%
EC50 dose, reduction of aggression ([6]; early adolescent SI mice (PND 21)): 8 mg/kg
reduction of the number of attacks vs. basal value ([6]; late SI mice, 10 mg/kg i.p.): −81%
reduction of the number of attacks vs. basal value ([6]; late SI mice, 15 mg/kg i.p.): −84%
reduction of the number of attacks vs. basal value ([6]; late SI mice, 20 mg/kg i.p.): −91%
EC50 dose, reduction of aggression ([6]; late adolescent SI mice (PND 45)): 6.5 mg/kg
duration of anti-aggressive effect ([6]; single dose 10 mg/kg and 15 mg/kg, late SI adolescent mice): less than 3 days
time after which the effect was extinguished ([6]; single dose 20 mg/kg, late SI mice): 5 days
duration of anti-aggressive effect (persisted) ([6]; single dose 20 mg/kg, late adolescent SI mice): 3 days
time after which aggressive behavior was reinstated ([6]; single dose 10, 15, and 20 mg/kg, early SI mice): 3 days
time after which aggressive behavior was reinstated ([6]; single dose 10 and 15 mg/kg, late SI mice): 3 days
5α-dihydroprogesterone (5α-DHP), hippocampus (increase) ([13]; 10 mg/kg i.p.): +64%
5α-dihydroprogesterone (5α-DHP), hippocampus (increase) ([13]; 20 mg/kg i.p.): +87%
